Data taken from the NIST ThermoML archive (doi:10.1016/j.fluid.2015.07.030).

Assay: refractive index (other wavelength) (dimensionless); xn = mol fraction of the nth substance listed
Settings: 95.99 kPa, Liquid, Standard Abbe refractometry

OCCOCCOCCO [triethylene glycol] + O
refractive index
Settings | Wavelength=404.7 nm | Wavelength=435.8 nm | Wavelength=486.1 nm | Wavelength=546.1 nm | Wavelength=587.6 nm | Wavelength=589.3 nm | Wavelength=632.8 nm | Wavelength=644 nm | Wavelength=706.5 nm
298.15 K, x2 = 0 | – | – | – | 1.45629 | 1.45447 | 1.4544 | 1.45284 | 1.45249 | 1.45075
298.15 K, x2 = 0.1056 | – | – | – | 1.45488 | 1.45307 | 1.453 | 1.45145 | 1.45109 | 1.44937
298.15 K, x2 = 0.2069 | – | – | – | 1.45318 | 1.45138 | 1.45132 | 1.44978 | 1.44942 | 1.44768
298.15 K, x2 = 0.3104 | – | – | – | 1.44993 | 1.44814 | 1.44807 | 1.44653 | 1.44617 | 1.44445
298.15 K, x2 = 0.4844 | – | – | – | 1.44606 | 1.44428 | 1.44422 | 1.44269 | 1.44234 | 1.44065
298.15 K, x2 = 0.5016 | – | – | 1.44841 | 1.44506 | 1.44328 | 1.44322 | 1.44169 | 1.44134 | 1.43966
298.15 K, x2 = 0.5952 | – | – | 1.44171 | 1.43842 | 1.43668 | 1.43661 | 1.4351 | 1.43475 | 1.43307
298.15 K, x2 = 0.6016 | – | – | 1.44175 | 1.43845 | 1.43673 | 1.43666 | 1.43516 | 1.43481 | 1.4331
298.15 K, x2 = 0.6788 | – | – | 1.43522 | 1.43197 | 1.43025 | 1.43019 | 1.4287 | 1.42835 | 1.42668
298.15 K, x2 = 0.7835 | – | – | 1.42571 | 1.42254 | 1.42088 | 1.42082 | 1.41936 | 1.41901 | 1.41733
298.15 K, x2 = 0.8184 | – | – | 1.42045 | 1.41732 | 1.41568 | 1.41562 | 1.41417 | 1.41382 | 1.41213
298.15 K, x2 = 0.8473 | – | – | 1.41417 | 1.41108 | 1.40947 | 1.40941 | 1.40798 | 1.40763 | 1.40596
298.15 K, x2 = 0.8719 | – | – | 1.40723 | 1.40421 | 1.40261 | 1.40255 | 1.40113 | 1.40079 | 1.39912
298.15 K, x2 = 0.8926 | – | – | 1.3994 | 1.39645 | 1.39488 | 1.39482 | 1.39343 | 1.3931 | 1.39147
298.15 K, x2 = 0.9106 | – | – | 1.39379 | 1.39086 | 1.3893 | 1.38924 | 1.38785 | 1.38752 | 1.38588
298.15 K, x2 = 0.9254 | – | – | 1.3833 | 1.38042 | 1.37889 | 1.37884 | 1.37748 | 1.37714 | 1.37553
298.15 K, x2 = 0.9303 | – | – | 1.38472 | 1.38187 | 1.38035 | 1.38029 | 1.37892 | 1.37859 | 1.37697
298.15 K, x2 = 0.9391 | – | – | 1.38066 | 1.37781 | 1.37628 | 1.37622 | 1.37485 | 1.37452 | 1.3729
298.15 K, x2 = 0.951 | – | – | 1.37385 | 1.37104 | 1.36953 | 1.36947 | 1.36812 | 1.3678 | 1.3662
298.15 K, x2 = 0.9599 | – | – | 1.36797 | 1.36514 | 1.36364 | 1.36359 | 1.36225 | 1.36139 | 1.36035
298.15 K, x2 = 0.9708 | – | – | 1.35998 | 1.35727 | 1.35581 | 1.35576 | 1.35444 | 1.35412 | 1.35254
298.15 K, x2 = 0.979 | – | – | 1.35488 | 1.35218 | 1.35072 | 1.35066 | 1.34937 | 1.34905 | 1.34751
298.15 K, x2 = 0.9867 | – | – | 1.34888 | 1.34617 | 1.34473 | 1.34467 | 1.3434 | 1.34308 | 1.34153
298.15 K, x2 = 0.9936 | – | – | 1.34258 | 1.33995 | 1.33852 | 1.33847 | 1.3372 | 1.3369 | 1.3354
303.15 K, x2 = 0 | 1.4657 | 1.46213 | 1.45796 | 1.45455 | 1.45273 | – | – | – | –
303.15 K, x2 = 0.1056 | 1.4643 | 1.46075 | 1.4566 | 1.45317 | 1.45138 | – | – | – | –
303.15 K, x2 = 0.2069 | 1.46262 | 1.4591 | 1.45496 | 1.45155 | 1.44975 | – | – | – | –
303.15 K, x2 = 0.3104 | 1.45889 | 1.45541 | 1.45129 | 1.4479 | 1.44612 | – | – | – | –
303.15 K, x2 = 0.4844 | 1.45533 | 1.4519 | 1.4478 | 1.44445 | 1.44268 | – | – | – | –
303.15 K, x2 = 0.5016 | 1.45432 | 1.4509 | 1.44681 | 1.44347 | 1.4417 | – | – | – | –
303.15 K, x2 = 0.5952 | 1.44749 | 1.44412 | 1.44014 | 1.43687 | 1.43513 | – | – | – | –
303.15 K, x2 = 0.6016 | 1.44759 | 1.44421 | 1.44025 | 1.43697 | 1.43525 | – | – | – | –
303.15 K, x2 = 0.6788 | 1.44091 | 1.43757 | 1.4337 | 1.43047 | 1.42877 | – | – | – | –
303.15 K, x2 = 0.7835 | 1.4314 | 1.4281 | 1.42435 | 1.42118 | 1.41951 | – | – | – | –
303.15 K, x2 = 0.8184 | 1.42604 | 1.4228 | 1.4191 | 1.41598 | 1.41434 | – | – | – | –
303.15 K, x2 = 0.8473 | 1.41954 | 1.41636 | 1.41271 | 1.40964 | – | – | – | – | –
303.15 K, x2 = 0.8719 | 1.41258 | 1.40944 | 1.40585 | 1.40283 | – | – | – | – | –
303.15 K, x2 = 0.8926 | 1.4048 | 1.40173 | 1.39821 | 1.39527 | – | – | – | – | –
303.15 K, x2 = 0.9106 | 1.39915 | 1.39612 | 1.39265 | 1.38973 | – | – | – | – | –
303.15 K, x2 = 0.9254 | 1.38867 | 1.38572 | 1.38237 | 1.37951 | – | – | – | – | –
303.15 K, x2 = 0.9303 | 1.38901 | 1.38707 | 1.38371 | 1.38085 | – | – | – | – | –
303.15 K, x2 = 0.9391 | 1.38606 | 1.38312 | 1.37974 | 1.37691 | – | – | – | – | –
303.15 K, x2 = 0.951 | 1.37929 | 1.37641 | 1.37311 | 1.3703 | – | – | – | – | –
303.15 K, x2 = 0.9599 | 1.37327 | 1.37045 | 1.36721 | 1.36443 | – | – | – | – | –
303.15 K, x2 = 0.9708 | 1.3651 | 1.36235 | 1.3592 | 1.35648 | – | – | – | – | –
303.15 K, x2 = 0.979 | 1.36001 | 1.3573 | 1.35419 | 1.3515 | – | – | – | – | –
303.15 K, x2 = 0.9867 | 1.3539 | 1.35126 | 1.34816 | 1.3455 | – | – | – | – | –
303.15 K, x2 = 0.9936 | 1.3476 | 1.34502 | 1.34197 | 1.33934 | – | – | – | – | –
